# Data taken from ChEMBL document CHEMBL5528082 (J Med Chem, 2024).
# The source made the active and inactive calls. No cut-off for these calls is given here.
# Tests used:
# [1] = tested on: Dihydrofolate reductase (Staphylococcus aureus); details: dose 100.0 nM
# Staphylococcus aureus [2] = test: Antibacterial activity against TMP-resistant Staphylococcus aureus BHKS 227 incubated for 24 hrs by CLSI based broth microdilution assay; type: functional
# [3] = AUC (0 to t) in Sprague-Dawley rat at 15 mg/kg, po measured for 24 hrs by LC/MS analysis; type: ADME, organism-based; details: in vivo
# [4] = Metabolic stability in mouse liver microsomes assessed as clearance rate at 3 uM measured for 120 mins by LC-MS/MS analysis; type: ADME, Microsome; details: 2 h
# [5] = Acute toxicity in C57 mouse assessed as damage in spleen at 800 mg/kg, po measured after 1 week by H and E staining based analysis; type: organism-based; details: in vivo, 168 h, time 1 weeks
# Dihydrofolate reductase = target: T1, Dihydrofolate reductase (Homo sapiens, UniProt P00374); test: Inhibition of human DHFR
# T1 sequence (P00374 whole entry): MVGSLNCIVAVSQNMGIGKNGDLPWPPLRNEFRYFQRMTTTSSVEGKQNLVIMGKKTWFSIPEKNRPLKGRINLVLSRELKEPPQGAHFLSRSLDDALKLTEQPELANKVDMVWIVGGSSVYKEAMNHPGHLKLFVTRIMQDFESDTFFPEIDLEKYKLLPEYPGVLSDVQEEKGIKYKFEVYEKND
# Staphylococcus aureus [6] = test: Antibacterial activity against methicillin-resistant Staphylococcus aureus ATCC 33591 infected in C57 mouse model assessed as clear skin structure at 2 to 10 mg/kg administered once a day for 3 days consecutively and measured after 24 hrs post-last dose by H and E staining based analysis; type: functional, organism-based; details: dose 2-10 mg/kg, time 4.0 day
# [7] = Acute toxicity in C57 mouse assessed as damage in heart at 800 mg/kg, po measured after 1 week by H and E staining based analysis; type: organism-based; details: in vivo, 168 h, time 1 weeks
# Mus musculus = test: Induction of inflammatory cell infiltration in C57 mouse model infected with methicillin-resistant Staphylococcus aureus ATCC 33591 at 2 to 10 mg/kg administered once a day for 3 days consecutively and measured after 24 hrs post-last dose by H and E staining based analysis; type: functional, organism-based; details: dose 2-10 mg/kg, time 4.0 day
# [8] = Clearance in Sprague-Dawley rat at 5 mg/kg, iv measured for 24 hrs by LC/MS analysis; type: ADME, organism-based; details: in vivo
compound,measurement,setting,value
CC(C)c1cc(OCC2CC2)c(I)cc1Oc1cnc(N)nc1N,inhibition,[1],47.4%
same,MIC,Staphylococcus aureus [2],0.5 µg/mL
same,AUC(0-t) at 24 h,[3],3920 ng·h/mL
same,CLH,[4],4.1 µL/min/mg
same,Activity,[5],Non-Toxic
same,IC50,Dihydrofolate reductase,4.19 µM
same,Activity,Staphylococcus aureus [6],Active
same,Activity,[7],Non-Toxic
same,Activity,Mus musculus,Active
same,clearance,[8],25 mL/min/kg
